According to ChEMBL document CHEMBL3352178, “Antidepressant- and anxiolytic-like activity of 7-phenylpiperazinylalkyl-1,3-dimethyl-purine-2,6-dione derivatives with diversified 5-HT₁A receptor functional profile” (Bioorg Med Chem, 2015):
pKi: −log10 of the molar value. Activity calls are given as the source filed them. The calls are words filed in the database; no cut-off is given here.

Key:
Mus musculus [1] = assay: Induction of hypothermia in mouse assessed as change in body temperature at 5 mg/kg, ip administered 30 mins before test and measured 60 mins post dose; assay type: functional, organism-based; parameters: dose 5 mg/kg
Mus musculus [2] = assay: Induction of hypothermia in mouse assessed as change in body temperature at 2.5 mg/kg, ip administered 30 mins before test and measured 30 mins post dose; assay type: functional, organism-based; parameters: dose 2.5 mg/kg
Mus musculus [3] = assay: Anxiolytic-like activity in mouse assessed as increase in number of punished crossings at 0.312 mg/kg, ip dosed 60 mins before test by four plate test; assay type: functional; conditions: route intraperitoneal
[4] = molecular target: T1, 5-hydroxytryptamine receptor 1A (Rattus norvegicus, UniProt P19327); assay: Displacement of [3H]-8-OH-DPAT from 5-HT1AR in rat hippocampus; assay type: tissue-based
T1 sequence (P19327 whole entry): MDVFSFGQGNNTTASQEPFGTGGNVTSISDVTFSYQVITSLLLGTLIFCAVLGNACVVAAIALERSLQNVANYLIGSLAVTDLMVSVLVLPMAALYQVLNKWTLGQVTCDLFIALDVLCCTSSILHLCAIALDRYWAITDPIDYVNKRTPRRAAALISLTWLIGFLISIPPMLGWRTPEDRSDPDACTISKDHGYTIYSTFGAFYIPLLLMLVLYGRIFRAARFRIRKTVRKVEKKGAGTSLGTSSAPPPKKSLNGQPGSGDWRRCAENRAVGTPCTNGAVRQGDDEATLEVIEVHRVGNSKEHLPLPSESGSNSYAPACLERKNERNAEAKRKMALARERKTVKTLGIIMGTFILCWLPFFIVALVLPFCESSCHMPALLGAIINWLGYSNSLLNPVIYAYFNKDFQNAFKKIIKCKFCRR

Mus musculus [5] = assay: Inhibition of (+/-)-DOI-induced head twitch response in mouse assessed as head twitches per 20 mins at 5 mg/kg, ip dosed 60 mins before (+/-)-DOI injection (reference value: 21.6 +/- 3.4/20 mins); assay type: functional; conditions: route intraperitoneal
Mus musculus [6] = assay: Induction of hypothermia in mouse assessed as change in body temperature at 5 mg/kg, ip administered 30 mins before test and measured 30 mins post dose; assay type: functional, organism-based; parameters: dose 5 mg/kg
Mus musculus [7] = assay: Induction of hypothermia in mouse assessed as change in body temperature at 5 mg/kg, ip administered 30 mins before test and measured 90 mins post dose; assay type: functional, organism-based; parameters: dose 5 mg/kg
[8] = molecular target: 5-hydroxytryptamine receptor 6 (Homo sapiens, UniProt P50406); assay: Displacement of [3H]LSD from human cloned 5-HT6R expressed in HEK293 cells; assay type: cell-based
Sequence of 5-hydroxytryptamine receptor 6 (P50406 whole entry): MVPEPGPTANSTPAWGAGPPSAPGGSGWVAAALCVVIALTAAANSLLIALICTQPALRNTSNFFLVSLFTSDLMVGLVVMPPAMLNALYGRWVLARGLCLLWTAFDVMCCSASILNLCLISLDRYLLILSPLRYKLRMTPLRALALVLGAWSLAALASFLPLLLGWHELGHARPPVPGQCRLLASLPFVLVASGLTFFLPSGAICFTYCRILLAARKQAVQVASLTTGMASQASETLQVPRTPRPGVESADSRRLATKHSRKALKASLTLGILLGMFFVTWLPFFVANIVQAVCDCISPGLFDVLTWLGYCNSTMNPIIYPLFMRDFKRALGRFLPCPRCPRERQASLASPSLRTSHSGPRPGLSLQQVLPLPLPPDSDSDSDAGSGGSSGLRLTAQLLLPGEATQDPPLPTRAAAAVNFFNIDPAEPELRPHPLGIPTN

Rattus norvegicus [9] = assay: Inhibition of 8-OH-DPAT-induced lower lip retraction in rat assessed as lower lip retraction scores at 10 mg/kg, ip dosed 45 mins before 8-OH-DPAT; assay type: functional; conditions: route intraperitoneal
Mus musculus [10] = assay: Inhibition of (+/-)-DOI-induced head twitch response in mouse assessed as head twitches per 20 mins at 10 mg/kg, ip dosed 60 mins before (+/-)-DOI injection (reference value: 21.6 +/- 3.4/20 mins); assay type: functional; conditions: route intraperitoneal
Mus musculus [11] = assay: Inhibition of (+/-)-DOI-induced head twitch response in mouse assessed as head twitches per 20 mins at 0.625 mg/kg, ip dosed 60 mins before (+/-)-DOI injection (reference value: 21.6 +/- 3.4/20 mins); assay type: functional; conditions: route intraperitoneal
Mus musculus [12] = assay: Inhibition of (+/-)-DOI-induced head twitch response in mouse assessed as head twitches per 20 mins at 1.25 mg/kg, ip dosed 60 mins before (+/-)-DOI injection (reference value: 21.6 +/- 3.4/20 mins); assay type: functional; conditions: route intraperitoneal
[13] = molecular target: 5-hydroxytryptamine receptor 2A (Rattus norvegicus, UniProt P14842); assay: Displacement of [3H]-ketanserin from 5-HT2AR in rat cortex
Sequence of 5-hydroxytryptamine receptor 2A (P14842 whole entry): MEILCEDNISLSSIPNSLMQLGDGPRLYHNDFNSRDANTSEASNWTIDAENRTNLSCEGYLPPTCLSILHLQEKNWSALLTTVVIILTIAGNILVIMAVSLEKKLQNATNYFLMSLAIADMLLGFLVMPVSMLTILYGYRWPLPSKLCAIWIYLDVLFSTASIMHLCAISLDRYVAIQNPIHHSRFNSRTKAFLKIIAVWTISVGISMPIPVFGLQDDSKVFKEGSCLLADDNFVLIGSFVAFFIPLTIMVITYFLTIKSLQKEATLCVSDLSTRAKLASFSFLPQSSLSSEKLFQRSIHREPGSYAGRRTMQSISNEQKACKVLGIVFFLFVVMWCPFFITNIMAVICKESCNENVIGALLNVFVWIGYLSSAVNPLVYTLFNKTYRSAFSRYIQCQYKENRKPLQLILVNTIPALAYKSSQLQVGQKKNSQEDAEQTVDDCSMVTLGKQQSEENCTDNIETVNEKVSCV

Rattus norvegicus [14] = assay: Induction of lower lip retraction in rat assessed as lower lip retraction scores at 1 mg/kg, ip dosed 15 mins before test; assay type: functional; conditions: route intraperitoneal
Rattus norvegicus [15] = assay: Inhibition of 8-OH-DPAT-induced lower lip retraction in rat assessed as lower lip retraction scores at 5 mg/kg, ip dosed 45 mins before 8-OH-DPAT; assay type: functional; conditions: route intraperitoneal
Mus musculus [16] = assay: Effect on spontaneous locomotor activity in mouse at 0.312 mg/kg, ip; assay type: ADME, organism-based; parameters: dose 0.312 mg/kg, route intraperitoneal; conditions: in vivo
Rattus norvegicus [17] = assay: Induction of lower lip retraction in rat assessed as lower lip retraction scores at 10 mg/kg, ip dosed 15 mins before test; assay type: functional; conditions: route intraperitoneal
Mus musculus [18] = assay: Induction of hypothermia in mouse assessed as change in body temperature at 2.5 mg/kg, ip administered 30 mins before test and measured 30 mins post dose in presence of 0.3 mg/kg, sc 5HT1A receptor antagonist WAY 100635; assay type: functional, organism-based
Mus musculus [19] = assay: Anxiolytic-like activity in mouse assessed as increase in number of punished crossings at 0.625 mg/kg, ip dosed 60 mins before test by four plate test; assay type: functional; conditions: route intraperitoneal
Mus musculus [20] = assay: Induction of hypothermia in mouse assessed as change in body temperature at 2.5 mg/kg, ip administered 30 mins before test and measured 120 mins post dose; assay type: functional, organism-based; parameters: dose 2.5 mg/kg
[21] = molecular target: 5-hydroxytryptamine receptor 7 (Homo sapiens, UniProt P34969); assay: Displacement of [3H]]-5-CT from human cloned 5-HT7R expressed in HEK293 cells; assay type: cell-based
Sequence of 5-hydroxytryptamine receptor 7 (P34969 whole entry): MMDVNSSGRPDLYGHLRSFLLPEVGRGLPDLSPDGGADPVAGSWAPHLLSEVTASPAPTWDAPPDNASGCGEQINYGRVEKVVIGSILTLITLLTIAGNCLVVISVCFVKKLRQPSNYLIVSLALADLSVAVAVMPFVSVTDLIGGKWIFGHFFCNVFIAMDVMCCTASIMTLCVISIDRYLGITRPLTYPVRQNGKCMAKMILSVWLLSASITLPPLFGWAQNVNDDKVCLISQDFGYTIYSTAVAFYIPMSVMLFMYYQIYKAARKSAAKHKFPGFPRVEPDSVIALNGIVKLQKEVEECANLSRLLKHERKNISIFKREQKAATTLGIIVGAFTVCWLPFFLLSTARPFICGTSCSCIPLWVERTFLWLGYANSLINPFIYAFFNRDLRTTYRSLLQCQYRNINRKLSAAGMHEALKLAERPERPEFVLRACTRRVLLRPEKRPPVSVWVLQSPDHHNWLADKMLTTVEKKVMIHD

Mus musculus [22] = assay: Anxiolytic-like activity in mouse assessed as increase in number of punished crossings at 0.156 mg/kg, ip dosed 60 mins before test co-administered with 0.625 mg/kg diazepam by four plate test; assay type: functional, organism-based
Mus musculus [23] = assay: Effect on spontaneous locomotor activity in mouse at 0.625 mg/kg, ip; assay type: ADME, organism-based; parameters: dose 0.625 mg/kg, route intraperitoneal; conditions: in vivo
Mus musculus [24] = assay: Induction of hypothermia in mouse assessed as change in body temperature at 2.5 mg/kg, ip administered 30 mins before test and measured 60 mins post dose; assay type: functional, organism-based; parameters: dose 2.5 mg/kg
Rattus norvegicus [25] = assay: Inhibition of 8-OH-DPAT-induced lower lip retraction in rat assessed as lower lip retraction scores at 1 mg/kg, ip dosed 45 mins before 8-OH-DPAT; assay type: functional; conditions: route intraperitoneal
Mus musculus [26] = assay: Induction of hypothermia in mouse assessed as change in body temperature at 2.5 mg/kg, ip administered 30 mins before test and measured 60 mins post dose in presence of 0.3 mg/kg, sc 5HT1A receptor antagonist WAY 100635; assay type: functional, organism-based
Mus musculus [27] = assay: Inhibition of (+/-)-DOI-induced head twitch response in mouse assessed as head twitches per 20 mins at 2.5 mg/kg, ip dosed 60 mins before (+/-)-DOI injection (reference value: 21.6 +/- 3.4/20 mins); assay type: functional; conditions: route intraperitoneal
Mus musculus [28] = assay: Inhibition of (+/-)-DOI-induced head twitch response in mouse dosed intraperitoneally 60 mins before (+/-)-DOI injection; assay type: functional
Mus musculus [29] = assay: Induction of hypothermia in mouse assessed as change in body temperature at 5 mg/kg, ip administered 30 mins before test and measured 120 mins post dose; assay type: functional, organism-based; parameters: dose 5 mg/kg
Mus musculus [30] = assay: Induction of hypothermia in mouse assessed as change in body temperature at 2.5 mg/kg, ip administered 30 mins before test and measured 90 mins post dose; assay type: functional, organism-based; parameters: dose 2.5 mg/kg
D(2) dopamine receptor = D(2) dopamine receptor (Rattus norvegicus, UniProt P61169); assay: Displacement of [3H]-spiperone from dopamine D2 receptor in rat striatum
Sequence of D(2) dopamine receptor (P61169 whole entry): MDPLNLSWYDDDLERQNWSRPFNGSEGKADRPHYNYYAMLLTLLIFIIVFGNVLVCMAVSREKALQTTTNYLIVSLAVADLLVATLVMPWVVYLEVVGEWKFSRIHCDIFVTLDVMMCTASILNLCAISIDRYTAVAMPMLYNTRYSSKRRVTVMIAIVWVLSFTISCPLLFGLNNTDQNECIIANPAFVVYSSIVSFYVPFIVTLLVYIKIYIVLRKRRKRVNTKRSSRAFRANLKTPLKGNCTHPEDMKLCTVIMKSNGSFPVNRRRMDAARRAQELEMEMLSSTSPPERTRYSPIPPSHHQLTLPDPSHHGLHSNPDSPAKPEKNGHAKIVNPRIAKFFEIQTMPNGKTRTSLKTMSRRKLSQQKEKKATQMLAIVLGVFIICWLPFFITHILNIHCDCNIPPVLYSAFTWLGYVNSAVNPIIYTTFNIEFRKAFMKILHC

Rattus norvegicus [31] = assay: Induction of lower lip retraction in rat assessed as lower lip retraction scores at 5 mg/kg, ip dosed 15 mins before test; assay type: functional; conditions: route intraperitoneal
Mus musculus [32] = assay: Antidepressant-like activity in mouse assessed as reduction in immobility time at 0.156 to 5 mg/kg, ip dosed 60 mins before test by forced swim test; assay type: functional, organism-based

## Cl.Cn1c(=O)c2c(ncn2CCCCCN2CCN(c3cccc(Cl)c3)CC2)n(C)c1=O
Mus musculus [1]
  deltaT: -1.4 °C
Mus musculus [2]
  deltaT: -2.1 °C
Mus musculus [3]
  Activity: 71%
[4]
  pKi: 8.30
Mus musculus [5]
  Activity: 5.8
Mus musculus [6]
  deltaT: -2.2 °C
Mus musculus [7]
  deltaT: -1.1 °C
[8]
  pKi: 5.92
Rattus norvegicus [9]
  Activity: 0.5
Mus musculus [10]
  Activity: 1.3
Mus musculus [11]
  Activity: 12.8
Mus musculus [12]
  Activity: 10.8
[13]
  pKi: 7.27
Rattus norvegicus [14]
  Activity: 0.2
Rattus norvegicus [15]
  Activity: 1.1
Mus musculus [16]
  Activity: Non-toxic
Rattus norvegicus [17]
  Activity: 0.1
Mus musculus [18]
  deltaT: -1.8 °C
Mus musculus [19]
  Activity: 57%
Mus musculus [20]
  deltaT: -1.3 °C
[21]
  pKi: 6.88
Mus musculus [22]
  Activity: Active
Mus musculus [23]
  Activity: Non-toxic
Mus musculus [24]
  deltaT: -1.8 °C
Rattus norvegicus [25]
  Activity: 1.8
Mus musculus [26]
  deltaT: -2 °C
Mus musculus [27]
  Activity: 8.2
Mus musculus [28]
  inhibition: Dose-dependent effect
Mus musculus [28]; ip, read-out: ID50 (the source's name)
  ED50: 2.54 mg/kg
Mus musculus [29]
  deltaT: 0.3 °C
Mus musculus [30]
  deltaT: -1.5 °C
D(2) dopamine receptor
  pKi: 7.40
Rattus norvegicus [31]
  Activity: 0.3
Mus musculus [32]
  Activity: inactive
